Experimental data from patent publication US12681007B2, “High throughput method for constructing and screening compound library and reaction device” (ZH[…] (SHENZHEN) CO., LTD., priority 2019, dated 2026).

Tested on: A549 (lung cancer) cells
Test: MTT screening of Erlotinib derivatives on A549 cells
Assay type: cell-based
Conditions: compound 10 μM, 24 hours, ratio of survival rate with derivative to survival rate with Erlotinib (lower = more active), unpurified in-situ reaction products
Protocol: Screening 840 Erlotinib derivatives by MTT method, operating steps: • (1) A549 (lung cancer) cells were adhered overnight: the logarithmic growth phase cells were digested and then counted, and were laid on 96 well plates overnight with 5000 cells per well. • (2) Adding drug: the compound concentration was diluted to 10 μM with complete culture solution, and the supernatant was discarded, and a volume of 100 μL per well was administrated and treated for 24 hours. • (3) Adding MTT: 20 μL MTT (5 mg/ml) was added to each well and cultured for 4 hours. • (4) Measuring the absorbance value: discarding the supernatant, 150 μL DMSO was added to each well, shaken for 10 minutes to make the crystals fully dissolved. The absorbance at 570 nm was measured by microplate reader.
The relative survival rate was calculated as the ratio of the survival rate of cells treated with Erlotinib derivatives to the survival rate of cells treated with positive compounds (Erlotinib), where lower relative survival rate means the activity of the compounds are better.

Q: How did the Relative survival rate turn out when `COCCOc1cc2ncnc(Nc3cccc(-c4cn([C@@H](Cc5ccccc5)C(=O)OC(C)(C)C)nn4)c3)c2cc1OCCOC` [Compound 23] was run?
A: 0.874

Q: How did the Relative survival rate turn out when `COCCOc1cc2ncnc(Nc3cccc(-c4cn(CCc5cccc([N+](=O)[O-])c5)nn4)c3)c2cc1OCCOC` [Compound 49] was run?
A: 0.913

Q: How did the Relative survival rate turn out when `COCCOc1cc2ncnc(Nc3cccc(-c4cn([C@H](C)c5nc6ccccc6[nH]5)nn4)c3)c2cc1OCCOC` [Compound 52] was run?
A: 0.993

Q: How did the Relative survival rate turn out when `COCCOc1cc2ncnc(Nc3cccc(-c4cn(-c5ccc(O)c(C(=O)O)c5)nn4)c3)c2cc1OCCOC` [Compound 267] was run?
A: 1.129

Q: With `COCCOc1cc2ncnc(Nc3cccc(-c4cn(Cc5cccc(C(=O)OC)c5)nn4)c3)c2cc1OCCOC` [Compound 50] as the molecule, how does the Relative survival rate read?
A: 0.951

Q: How did the Relative survival rate turn out when `COCCOc1cc2ncnc(Nc3cccc(-c4cn(CCc5cccc(C(F)(F)F)c5)nn4)c3)c2cc1OCCOC` [Compound 93] was run?
A: 0.621

Q: For `COCCOc1cc2ncnc(Nc3cccc(-c4cn(C(C)(Cc5ccccc5)C(=O)OC)nn4)c3)c2cc1OCCOC` (centres unmarked) [Compound 24], which Relative survival rate is on record?
A: 0.557

Q: How did the Relative survival rate turn out when `COCCOc1cc2ncnc(Nc3cccc(-c4cn(C(C)(C)c5ccccc5)nn4)c3)c2cc1OCCOC` [Compound 27] was run?
A: 0.862

Q: Which Relative survival rate does the source give for `COCCOc1cc2ncnc(Nc3cccc(-c4cn(-c5ccc(Cc6ccccc6)cc5)nn4)c3)c2cc1OCCOC` [Compound 269] here?
A: 1.289

Q: Which Relative survival rate does the source give for `COCCOc1cc2ncnc(Nc3cccc(-c4cn(-c5ccc(CC(=O)OC)cc5)nn4)c3)c2cc1OCCOC` [Compound 270] here?
A: 1.200

Q: How did the Relative survival rate turn out when `COCCOc1cc2ncnc(Nc3cccc(-c4cn(Cc5c[nH]cn5)nn4)c3)c2cc1OCCOC` [Compound 53] was run?
A: 0.928

Q: For `COCCOc1cc2ncnc(Nc3cccc(-c4cn(Cc5ccccc5S(C)(=O)=O)nn4)c3)c2cc1OCCOC` [Compound 55], which Relative survival rate is on record?
A: 0.814

Q: How did the Relative survival rate turn out when `CCOc1ccccc1Cn1cc(-c2cccc(Nc3ncnc4cc(OCCOC)c(OCCOC)cc34)c2)nn1` [Compound 48] was run?
A: 0.971

Q: For `CCOC(=O)[C@H](Cc1ccc(O)cc1)n1cc(-c2cccc(Nc3ncnc4cc(OCCOC)c(OCCOC)cc34)c2)nn1` [Compound 26], which Relative survival rate is on record?
A: 0.942

Q: For `COCCOc1cc2ncnc(Nc3cccc(-c4cn(CCc5ccc(Cl)c(Cl)c5)nn4)c3)c2cc1OCCOC` [Compound 87], which Relative survival rate is on record?
A: 0.850

Q: With `COCCOc1cc2ncnc(Nc3cccc(-c4cn(CC(O)c5cccc(Cl)c5)nn4)c3)c2cc1OCCOC` (centres unmarked) [Compound 92] as the molecule, how does the Relative survival rate read?
A: 0.854

Q: With `COCCOc1cc2ncnc(Nc3cccc(-c4cn(CCc5ccc6ccccc6c5)nn4)c3)c2cc1OCCOC` [Compound 97] as the molecule, how does the Relative survival rate read?
A: 0.654

Q: How did the Relative survival rate turn out when `COCCOc1cc2ncnc(Nc3cccc(-c4cn(CC(O)c5cccc(O)c5)nn4)c3)c2cc1OCCOC` (centres unmarked) [Compound 95] was run?
A: 0.971

Q: With `COCCOc1cc2ncnc(Nc3cccc(-c4cn(CCc5cccc(F)c5)nn4)c3)c2cc1OCCOC` [Compound 86] as the molecule, how does the Relative survival rate read?
A: 0.861

Q: How did the Relative survival rate turn out when `COCCOc1cc2ncnc(Nc3cccc(-c4cn(C[C@@H](O)c5ccccc5)nn4)c3)c2cc1OCCOC` [Compound 84] was run?
A: 0.988

Q: Which Relative survival rate does the source give for `COCCOc1cc2ncnc(Nc3cccc(-c4cn(CC5=CCC(O)C=C5)nn4)c3)c2cc1OCCOC` (centres unmarked) [Compound 25] here?
A: 0.885

Q: `COCCOc1cc2ncnc(Nc3cccc(-c4cn(Cc5cc(C)on5)nn4)c3)c2cc1OCCOC` [Compound 54] was tested. Which Relative survival rate did it give?
A: 0.878

Q: With `COCCOc1cc2ncnc(Nc3cccc(-c4cn(CCc5ccccn5)nn4)c3)c2cc1OCCOC` [Compound 99] as the molecule, how does the Relative survival rate read?
A: 0.888

Q: `COCCOc1cc2ncnc(Nc3cccc(-c4cn(-c5ccccc5)nn4)c3)c2cc1OCCOC` [Compound 266] was tested. Which Relative survival rate did it give?
A: 1.130

Q: Which Relative survival rate does the source give for `COCCOc1cc2ncnc(Nc3cccc(-c4cn([C@@H](Cc5ccccc5)C(=O)OC)nn4)c3)c2cc1OCCOC` [Compound 94] here?
A: 0.885

Q: With `COCCOc1cc2ncnc(Nc3cccc(-c4cn(Cc5ccc(Cl)nc5)nn4)c3)c2cc1OCCOC` [Compound 98] as the molecule, how does the Relative survival rate read?
A: 0.959

Q: With `COCCOc1cc2ncnc(Nc3cccc(-c4cn(C5CCCc6ccccc65)nn4)c3)c2cc1OCCOC` (centres unmarked) [Compound 89] as the molecule, how does the Relative survival rate read?
A: 0.577

Q: How did the Relative survival rate turn out when `COCCOc1cc2ncnc(Nc3cccc(-c4cn([C@H](CO)C(=O)OCc5ccccc5)nn4)c3)c2cc1OCCOC` [Compound 51] was run?
A: 0.989

Q: `COCCOc1cc2ncnc(Nc3cccc(-c4cn(CCc5cccc(OC)c5)nn4)c3)c2cc1OCCOC` [Compound 20] was tested. Which Relative survival rate did it give?
A: 0.993

Q: With `COCCOc1cc2ncnc(Nc3cccc(-c4cn(C(C)(C)c5cc(F)cc(F)c5)nn4)c3)c2cc1OCCOC` [Compound 56] as the molecule, how does the Relative survival rate read?
A: 0.978

Q: With `COCCOc1cc2ncnc(Nc3cccc(-c4cn(Cc5ccsc5)nn4)c3)c2cc1OCCOC` [Compound 57] as the molecule, how does the Relative survival rate read?
A: 0.957

Q: With `COCCOc1cc2ncnc(Nc3cccc(-c4cn([C@H]5CCc6nc(N)sc6C5)nn4)c3)c2cc1OCCOC` [Compound 22] as the molecule, how does the Relative survival rate read?
A: 0.866

Q: With `COCCOc1cc2ncnc(Nc3cccc(-c4cn(CCc5c[nH]c6cc(Cl)ccc56)nn4)c3)c2cc1OCCOC` [Compound 90] as the molecule, how does the Relative survival rate read?
A: 0.522

Q: Which Relative survival rate does the source give for `COCCOc1cc2ncnc(Nc3cccc(-c4cn([C@@H](C)C(=O)OCc5ccccc5)nn4)c3)c2cc1OCCOC` [Compound 96] here?
A: 0.829

Q: For `COCCOc1cc2ncnc(Nc3cccc(-c4cn(-c5ccc(C)cc5C(=O)O)nn4)c3)c2cc1OCCOC` [Compound 268], which Relative survival rate is on record?
A: 1.311

Q: Which Relative survival rate does the source give for `COCCOc1cc2ncnc(Nc3cccc(-c4cn([C@H](Cc5ccc(O)cc5)C(=O)OC)nn4)c3)c2cc1OCCOC` [Compound 88] here?
A: 0.889

Q: `COCCOc1cc2ncnc(Nc3cccc(-c4cn(-c5cc(C)nn5-c5ccccc5)nn4)c3)c2cc1OCCOC` [Compound 47] was tested. Which Relative survival rate did it give?
A: 0.893

Q: How did the Relative survival rate turn out when `COCCOc1cc2ncnc(Nc3cccc(-c4cn(CCCOCc5ccccc5)nn4)c3)c2cc1OCCOC` [Compound 85] was run?
A: 0.867
